# Details: speed depends on the conditions of the dehydration
compound,measurement,value
"OC(Cn1cncn1)(Cn1cncn1)c1ccc(F)cc1F [monohydrate, 2-(2,4-Difluorophenyl)-1,3-bis(1,2,4-triazole-1-yl)-propane-2-ol Monohydrate]","temperature at which the monohydrate is transformed into anhydrous fluconazole (""anhydrate"")",40-90 °C
